Assay [1] deals with MCP-1 induced THP-1 migration. In words: Trans-well THP-1 migration assay, MCP-1 as chemoattractant. The settings on record: concentrations above 50 μM. The assay is classed as cell-based, human. The method, then: FIG. 1 is a schematic of the trans-well migration assay. In most experiments, the peptide (wavy line) is added to the upper well with about 50,000 cells (O). The upper and lower wells are separated by a 5 μm or 8 μm pore size PVP-free membrane (- - - -). Chemokine (●) is added to the lower well. After 4 hours, the number of cells that have migrated through the membrane are measured (◯ in lower well).
To determine whether an agent inhibits a chemokine-induced activity, such as macrophage recruitment, varying amounts of the agent are mixed with cells in the presence of a known chemoattractant. For example, a range of known concentrations of an agent, e.g., a chemokine peptide, is incubated with a defined number (e.g., 10^4-10^6) of human THP-1 monocyte cells in individual wells of the top compartment of a trans-well plate. Chemokine (such as MCP-1, MIP1α, IL8 or SDF-1α), at a concentration known to cause significant migration of THP-1 cells in the trans-well migration assay, is placed in the lower compartment (FIG. 1). Cells are then incubated at 37° C. for a period sufficient to allow migration, e.g., 4 hours. After incubation, the cells are gently removed from the top of the filter with a pipette, 20 μl of 20 mM EDTA in simple PBS is added into each top well, and incubated for 20 minutes at 4° C. The filter is carefully flushed with media using a gentle flow, and removed. A standard curve consisting of a two-fold dilution series of THP-1 cells (in 29 μl) is prepared to accurately quantify the number of cells that have migrated. Migrated cells are stained with 3 μl of MTT stock dye solution which is added directly into each well (5 mg/ml in RPMI-1640 without phenol red, Sigma Chemical Co.) and incubated at 37° C. for 4 hours. The media is carefully aspirated from each well, and the converted dye is solubilized by 20 μl of DMSO. Absorbance of converted dye is measured at a wavelength of 595 nm using an ELISA plate reader. The number of migrated cells in each well is then determined by interpolation of the standard curve (see also Imai et al., J. Biol. Chem., 272, 15036 (1997)).
Any method suitable for counting cells can be used, for example, counting with a hemocytometer, incubation of the cells with MTT (see above), or FACS analysis. A negative control assay is also performed, using TGF-β or another non-chemokine chemoattractant (e.g., IL1β or TNFα). To assess whether the agent is cytotoxic, the same concentrations of agent are incubated with THP-1 cells. Agents which 1) are not cytotoxic at levels which inhibit migration, 2) are ineffective at inhibiting the negative control-induced migration, and 3) reduce or inhibit chemokine-induced THP-1 migration, are agents which fall within the scope of the invention.
For this assay, THP-1 cells were maintained at a density of 4×10^5 cells per ml in RPMI-1640 supplemented with 10% fetal calf serum+20 μM 2-mercaptoethanol. Chemotaxis was induced in a 96-well disposable chemotaxis chamber fitted with a […] polycarbonate filter (PVP free, ChemoTX, Neuroprobe Inc., Cabin John). Twenty-nine μl of chemoattractant (recombinant human chemokine; 50 ng/ml, i.e., 5.9 nM) or control (100 ng/ml TGFβ) was added to the lower compartment of each well. The framed filter was aligned with the holes in the corner of the filter frame and placed over the wells. Five×10^4 THP-1 cells in 25 μl of RPMI-1640 culture media were added to the upper compartment. Peptides were dissolved in Milli Q water and then serially diluted in culture medium. In most cases, the serially diluted peptides were added to the upper compartment of the chemotaxis chamber. The chamber was incubated at 37° C. in a humidified atmosphere of 5% CO2 for 4 hours.
After incubation, the cells were gently removed from the top of the filter with a pipette, 20 μl of 20 mM EDTA in PBS was added into each top well, and the mixture was incubated for 20 minutes at 4° C. The filter was then carefully flushed with media using a gentle flow, and removed. […]

For assay [2], the system named is SDF-1α induced human monocyte migration. In words: Human monocyte migration, SDF-1α induced. The assay is classed as cell-based. The settings on record: Table 4(c); 100 μM peptide; n.s. = no statistically significant inhibition. The method, then:
(§1) Agents may also be screened in a chemotactic assay which employs human neutrophils, eosinophils, mast cells, basophils, platelets, lymphocytes or monocytes. For monocytes, 9 mls of fresh blood are transferred to a tube containing 1 ml of 3.8% sodium citrate, and left at room temperature for 15 minutes. Five mls of this anti-coagulated blood are carefully layered over 3.5 ml Polymorphprep® (Nycomed Pharma, Oslo), and centrifuged at 500 g for 35 minutes per the manufacturer's instructions. The top band at the sample/medium interface contains monocytes. The monocytes are carefully removed with a glass pipette, and reconstituted to the original volume (5 ml). The cells are washed with PBS plus 10% fetal calf serum, and centrifuged at 400 g for 10 minutes. The washing step is repeated three times before the cells are counted. Cells are resuspended at 1×10^7 cells/ml in RPMI-1640+10% fetal calf serum (FCS). The monocytes are cultured for two days at 37° C. in a humidified atmosphere of 5% CO2.
(§2) On day 2, the cells are counted, spun down, and reconstituted to 1×10^7 cells/ml in Gey's balanced salt solution+1 mg/ml bovine serum albumin (BSA). […]

Assay [3] deals with chemokine-induced migration of peripheral blood monocytes. The experiment in a line: Chemokine-induced migration of freshly prepared peripheral blood monocytes, each of the four chemokines. The format is cell-based, human. Conditions: 100 μM; peripheral blood monocytes from 3 donors. As for the experimental part:
as §1, §2

Regarding EICADPKQKWVQ [Peptide 3], in assay [1], the “effect on MCP-1 induced THP-1 migration at concentrations above 50 μM” value is on record as “abolished all of the MCP-1 induced THP-1 migration”. The “Extent of inhibition of human monocyte migration at 100 μM, SDF-1α” value in assay [2] was 108%. Further, the “inhibition of monocyte migration induced with each of the four chemokines” value in assay [3] was more than 95%.
